# From patent publication US20240083853A1, “HSD17B13 INHIBITORS AND USES THEREOF” (FL2022-001, Inc., priority 2020, published 2024)
# Structures can show the parent of a compound that is named as a salt.
# Target: T1, Recombinant human HSD17B13 enzyme (Homo sapiens, UniProt Q7Z5P4)
# T1 sequence (Q7Z5P4 20-300): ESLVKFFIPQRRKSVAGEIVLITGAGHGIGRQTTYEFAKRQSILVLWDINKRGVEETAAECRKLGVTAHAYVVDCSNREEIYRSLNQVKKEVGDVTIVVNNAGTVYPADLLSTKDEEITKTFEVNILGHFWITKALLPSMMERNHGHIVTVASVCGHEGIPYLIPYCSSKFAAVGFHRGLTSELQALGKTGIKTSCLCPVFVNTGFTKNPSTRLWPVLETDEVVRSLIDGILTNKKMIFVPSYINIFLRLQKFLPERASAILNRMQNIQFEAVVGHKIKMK
# Assay: HSD17b13 NAD(P)H-Glo biochemical assay
# Details: 50 uM estradiol, 1 mM NAD+, NAD(P)H-Glo luminescence; read-out: HSD17β13 IC50
# Summary of the method: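 Luminescent NAD(P)H-Glo read-out, taken after 1 hour at RT, measured cofactor reduction. Substrate and cofactor were estradiol at 50 uM and NAD+ at 1 mM final, reacted with the recombinant human enzyme for 3 hours at 37° C in 20 mM Tris pH7.4, 0.002% Tween-20, 0.02% BSA. Compound was pre-incubated with enzyme for 20 minutes at RT.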
row,SMILES,IC50 [nM]
1,"CC1CN(c2ccc(-n3ncc4cc(F)c(O)c(F)c43)cc2)CC(C)[S+]1[O-] (stereo not drawn) [Compound 32.3, 4-(4-(5,7-Difluoro-6-hydroxy-1H-indazol-1-yl)phenyl)-2,6-dimethylthiomorpholine 1-oxide]",100 to 1000
2,"C[C@@H]1CN(c2ccc(-n3ncc4cc(F)c(O)c(F)c43)cc2)C[C@H](C)S1 [Compound 32.4, 1-(4-(cis-2,6-Dimethylthiomorpholino)phenyl)-5,7-difluoro-1H-indazol-6-ol]",< 100
3,"CC1(C)CCN(c2ccc(N3C(=O)Cc4cc(F)c(O)c(F)c43)cc2)CC1 [Compound 33, 1-(4-(4,4-Dimethylpiperidin-1-yl)phenyl)-5,7-difluoro-6-hydroxyindolin-2-one]",100 to 1000
4,"CC1(C)CCN(c2ccc(N3C(=O)C(C)(C)c4cc(F)c(O)c(F)c43)cc2)CC1 [Compound 34, 1-(4-(4,4-Dimethylpiperidin-1-yl)phenyl)-5,7-difluoro-6-hydroxy-3,3-dimethylindolin-2-one]",1000 to 30000
5,"CC1(C)CCN(c2ccc(-n3[nH]c(=O)c4cc(F)c(O)c(F)c43)cc2)CC1 [Compound 36, 1-(4-(4,4-Dimethylpiperidin-1-yl)phenyl)-5,7-difluoro-6-hydroxy-1H-indazol-3(2H)-one]",100 to 1000
6,"Cn1c(=O)c2cc(F)c(O)c(F)c2n1-c1ccc(N2CCC(C)(C)CC2)cc1 [Compound 37, 1-(4-(4,4-Dimethylpiperidin-1-yl)phenyl)-5,7-difluoro-6-hydroxy-2-methyl-1H-indazol-3(2H)-one]",100 to 1000
7,"COc1nn(-c2ccc(N3CCC(C)(C)CC3)cc2)c2c(F)c(O)c(F)cc12 [Compound 37.1, 1-(4-(4,4-Dimethylpiperidin-1-yl)phenyl)-5,7-difluoro-3-methoxy-1H-indazol-6-ol]",100 to 1000
8,"CC1(C)CCN(c2ccc(-n3c(=O)oc4c(Br)c(F)c(O)c(F)c43)cc2)CC1 [Compound 38, 7-Bromo-3-(4-(4,4-dimethylpiperidin-1-yl)phenyl)-4,6-difluoro-5-hydroxybenzo[d]oxazol-2(3H)-one]",< 100
9,"CC1(C)CCN(c2ccc(-n3c(=O)oc4cc(F)c(O)c(F)c43)cc2)CC1 [Compound 39, 3-(4-(4,4-Dimethylpiperidin-1-yl)phenyl)-4,6-difluoro-5-hydroxybenzo[d]oxazol-2(3H)-one]",< 100
10,"Oc1cc2c(nnn2-c2ccc(N3CC4(CCOCC4)C3)cc2)c(Cl)c1F [Compound 40, 1-(4-(7-Oxa-2-azaspiro[3.5]nonan-2-yl)phenyl)-4-chloro-5-fluoro-1H-benzo[d][1,2,3]triazol-6-ol]",< 100
11,"CC1(C)CCN(c2ccc(-n3nnc4c(Cl)c(F)c(O)cc43)cc2)CC1 [Compound 40.1, 4-Chloro-1-(4-(4,4-dimethylpiperidin-1-yl)phenyl)-5-fluoro-1H-benzo[d][1,2,3]triazol-6-ol]",< 100
12,"CC1(C)CCN(c2ccc(-n3nnc4c(F)c(F)c(O)cc43)cc2)CC1 [Compound 40.2, 1-(4-(4,4-Dimethylpiperidin-1-yl)phenyl)-4,5-difluoro-1H-benzo[d][1,2,3]triazol-6-ol]",100 to 1000
13,"Oc1cc2c(nnn2-c2ccc(N3CC4(CCOCC4)C3)cc2)c(F)c1F [Compound 40.3, 1-(4-(7-oxa-2-azaspiro[3.5]nonan-2-yl)phenyl)-4,5-difluoro-1H-benzo[d][1,2,3]triazol-6-ol]",100 to 1000
14,"Oc1cc2c(nnn2-c2ccc(N3CC4(CCOCC4)C3)cc2)c(C(F)(F)F)c1F [Compound 41, 1-(4-(7-Oxa-2-azaspiro[3.5]nonan-2-yl)phenyl)-5-fluoro-4-(trifluoromethyl)-1H-benzo[d][1,2,3]triazol-6-ol]",100 to 1000
15,"CC1(C)CCN(c2ccc(-n3nnc4c(C(F)(F)F)c(F)c(O)cc43)cc2)CC1 [Compound 41.1, 1-(4-(4,4-Dimethylpiperidin-1-yl)phenyl)-5-fluoro-4-(trifluoromethyl)-1H-benzo[d][1,2,3]triazol-6-ol]",100 to 1000
16,"CC1(C)CCN(c2ncc(-n3nnc4cc(F)c(O)c(F)c43)cn2)CC1 [Compound 42, 1-(2-(4,4-Dimethylpiperidin-1-yl)pyrimidin-5-yl)-5,7-difluoro-1H-benzo[d][1,2,3]triazol-6-ol]",< 100
17,"Oc1c(F)cc2nnn(-c3cnc(N4CC5(CCOCC5)C4)nc3)c2c1F [Compound 42.1, 1-(2-(7-Oxa-2-azaspiro[3.5]nonan-2-yl)pyrimidin-5-yl)-5,7-difluoro-1H-benzo[d][1,2,3]triazol-6-ol]",1000 to 30000

# Same assay, conditions: 3 h, read-out: HSD17β13 % at 10 uM
row,SMILES,inhibition at 10 µM [%]
1,"CC1(C)CCN(c2ccc(N3C(=O)C(O)c4cc(F)c(O)c(F)c43)cc2)CC1 (stereo not drawn) [Compound 35, 1-(4-(4,4-Dimethylpiperidin-1-yl)phenyl)-5,7-difluoro-3,6-dihydroxyindolin-2-one hydrochloride]",< 20
